# Columns and labels:
# Type in all cases: functional
# [1] = system: SK-OV-3; test: Cytotoxicity against human SKOV3 cells assessed as cell growth level at 1 uM after 48 hrs by sulforhodamine B assay
# [2] = system: NCI-H460; test: Cytotoxicity against human NCI-H460 cells assessed as cell growth level at 100 uM after 48 hrs by sulforhodamine B assay
# [3] = system: HCT-15; test: Cytotoxicity against human HCT15 cells assessed as cell growth level at 100 uM after 48 hrs by sulforhodamine B assay
# [4] = system: SK-OV-3; test: Cytotoxicity against human SKOV3 cells assessed as cell growth level at 100 nM after 48 hrs by sulforhodamine B assay
# [5] = system: MDA-MB-231; test: Cytotoxicity against human MDA-MB-231/ATCC cells assessed as cell growth level at 10 uM after 48 hrs by sulforhodamine B assay
# [6] = system: CAKI-1; test: Cytotoxicity against human CAKI-1 cells assessed as cell growth level at 1 uM after 48 hrs by sulforhodamine B assay
# [7] = system: NCI-H460; test: Cytotoxicity against human NCI-H460 cells assessed as cell growth level at 100 nM after 48 hrs by sulforhodamine B assay
# [8] = system: UACC-257; test: Cytotoxicity against human UACC257 cells assessed as cell growth level at 100 nM after 48 hrs by sulforhodamine B assay
# [9] = system: K562; test: Cytotoxicity against human K562 cells assessed as cell growth level at 100 nM after 48 hrs by sulforhodamine B assay
# [10] = system: CCRF-CEM; test: Cytotoxicity against human CCRF-CEM cells assessed as cell growth level at 1 uM after 48 hrs by sulforhodamine B assay
# [11] = system: UACC-257; test: Cytotoxicity against human UACC257 cells assessed as cell growth level at 10 uM after 48 hrs by sulforhodamine B assay
# [12] = system: UACC-62; test: Cytotoxicity against human UACC62 cells after 48 hrs by sulforhodamine B assay; conditions: UACC-62, 48 h
# [13] = system: SW-620; test: Cytotoxicity against human SW620 cells assessed as cell growth level at 10 uM after 48 hrs by sulforhodamine B assay
# [14] = system: SW-620; test: Cytotoxicity against human SW620 cells assessed as cell growth level at 10 nM after 48 hrs by sulforhodamine B assay
# [15] = system: 786-0; test: Cytotoxicity against human 786-0 cells assessed as cell growth level at 1 uM after 48 hrs by sulforhodamine B assay
# [16] = system: KM12; test: Cytotoxicity against human KM12 cells assessed as cell growth level at 10 uM after 48 hrs by sulforhodamine B assay
# [17] = Cytotoxicity against human NCI-ADR-RES cells after 48 hrs by sulforhodamine B assay
# [18] = system: KM12; test: Cytotoxicity against human KM12 cells assessed as cell growth level at 10 nM after 48 hrs by sulforhodamine B assay
# [19] = system: HCT-116; test: Cytotoxicity against human HCT116 cells after 48 hrs by sulforhodamine B assay; conditions: HCT-116, 48 h
# [20] = system: SK-MEL-2; test: Cytotoxicity against human SK-MEL-2 cells after 48 hrs by sulforhodamine B assay; conditions: SK-MEL-2, 48 h
# [21] = system: SF-268; test: Cytotoxicity against human SF268 cells assessed as cell growth level at 10 uM after 48 hrs by sulforhodamine B assay
# [22] = system: SNB-19; test: Cytotoxicity against human SNB19 cells assessed as cell growth level at 100 uM after 48 hrs by sulforhodamine B assay
# [23] = system: OVCAR-8; test: Cytotoxicity against human OVCAR8 cells assessed as cell growth level at 1 uM after 48 hrs by sulforhodamine B assay
# [24] = system: NCI-H460; test: Cytotoxicity against human NCI-H460 cells assessed as cell growth level at 1 uM after 48 hrs by sulforhodamine B assay
# [25] = system: K562; test: Cytotoxicity against human K562 cells after 48 hrs by sulforhodamine B assay; conditions: K562, 48 h
# [26] = system: SNB-19; test: Cytotoxicity against human SNB19 cells assessed as cell growth level at 10 uM after 48 hrs by sulforhodamine B assay
# [27] = system: HCT-15; test: Cytotoxicity against human HCT15 cells assessed as cell growth level at 100 nM after 48 hrs by sulforhodamine B assay
# [28] = system: OVCAR-5; test: Cytotoxicity against human OVCAR5 cells assessed as cell growth level at 100 uM after 48 hrs by sulforhodamine B assay
# [29] = system: NCI-H226; test: Cytotoxicity against human NCI-H226 cells assessed as cell growth level at 100 nM after 48 hrs by sulforhodamine B assay
# [30] = system: SNB-75; test: Cytotoxicity against human SNB75 cells assessed as cell growth level at 10 nM after 48 hrs by sulforhodamine B assay
# [31] = system: HCT-15; test: Cytotoxicity against human HCT15 cells after 48 hrs by sulforhodamine B assay; conditions: HCT-15, 48 h
# [32] = system: UO-31; test: Cytotoxicity against human UO31 cells assessed as cell growth level at 1 uM after 48 hrs by sulforhodamine B assay
# [33] = system: SNB-19; test: Cytotoxicity against human SNB19 cells assessed as cell growth level at 1 uM after 48 hrs by sulforhodamine B assay
# [34] = system: RXF 393; test: Cytotoxicity against human RXF393 cells assessed as cell growth level at 100 uM after 48 hrs by sulforhodamine B assay
# [35] = system: NCI-H322M; test: Cytotoxicity against human NCI-H322M cells assessed as cell growth level at 100 uM after 48 hrs by sulforhodamine B assay
# [36] = system: OVCAR-4; test: Cytotoxicity against human OVCAR4 cells assessed as cell growth level at 100 nM after 48 hrs by sulforhodamine B assay
# [37] = system: RXF 393; test: Cytotoxicity against human RXF393 cells assessed as cell growth level at 10 uM after 48 hrs by sulforhodamine B assay
# [38] = system: M14; test: Cytotoxicity against human M14 cells after 48 hrs by sulforhodamine B assay; conditions: M14, 48 h
# [39] = read-out: LC50 (the source's name)
# [40] = read-out: pLC50 (the source's name) (converted)
structure (smiles),measurement,setting,value
O=c1oc2ccccc2cc1-c1csc(N/N=C/c2c[nH]c3ccccc23)n1,Activity,[1],64%
same,Activity,[2],-94%
same,Activity,[3],-48%
same,Activity,[4],90%
same,Activity,[5],-37.04%
same,Activity,[6],88%
same,Activity,[7],93%
same,Activity,[8],88%
same,Activity,[9],110%
same,Activity,[10],7%
same,Activity,[11],8.34%
same,GI50,[12]; read-out: GI50,1.6 µM
same,CC50,[12]; [39],7.11 µM
same,TGI,[12]; read-out: TGI,3.38 µM
same,GI50,[12]; read-out: pGI50 (converted),1.58 µM
same,CC50,[12]; [40],7.08 µM
same,TGI,[12]; read-out: pTGI (converted),3.39 µM
same,Activity,[13],17.5%
same,Activity,[14],98%
same,Activity,[15],80%
same,Activity,[16],-47.67%
same,GI50,[17]; read-out: GI50,2.82 µM
same,CC50,[17]; [39],> 100 µM
same,TGI,[17]; read-out: TGI,9.23 µM
same,GI50,[17]; read-out: pGI50 (converted),2.82 µM
same,CC50,[17]; [40],> 100 µM
same,TGI,[17]; read-out: pTGI,< 9.33 µM
same,Activity,[18],99%
same,GI50,[19]; read-out: GI50,1.6 µM
same,CC50,[19]; [39],6.49 µM
same,TGI,[19]; read-out: TGI,3.22 µM
same,GI50,[19]; read-out: pGI50 (converted),1.58 µM
same,CC50,[19]; [40],6.46 µM
same,TGI,[19]; read-out: pTGI (converted),3.24 µM
same,GI50,[20]; read-out: GI50,1.61 µM
same,CC50,[20]; [39],8.17 µM
same,TGI,[20]; read-out: TGI,3.62 µM
same,GI50,[20]; read-out: pGI50 (converted),1.62 µM
same,CC50,[20]; [40],8.13 µM
same,TGI,[20]; read-out: pTGI (converted),3.63 µM
same,Activity,[21],14.73%
same,Activity,[22],-44%
same,Activity,[23],94%
same,Activity,[24],52%
same,GI50,[25]; read-out: GI50,3.18 µM
same,LC50,[25]; read-out: LC50,> 100 µM
same,TGI,[25]; read-out: TGI,10.4 µM
same,GI50,[25]; read-out: pGI50 (converted),3.16 µM
same,LC50,[25]; read-out: pLC50 (converted),> 100 µM
same,TGI,[25]; read-out: pTGI (converted),10.5 µM
same,Activity,[26],39.43%
same,Activity,[27],96%
same,Activity,[28],-36%
same,Activity,[29],104%
same,Activity,[30],94%
same,GI50,[31]; read-out: GI50,1.61 µM
same,CC50,[31]; [39],7.46 µM
same,TGI,[31]; read-out: TGI,3.47 µM
same,GI50,[31]; read-out: pGI50 (converted),1.62 µM
same,CC50,[31]; [40],7.41 µM
same,TGI,[31]; read-out: pTGI (converted),3.47 µM
same,Activity,[32],46%
same,Activity,[33],73%
same,Activity,[34],-6%
same,Activity,[35],-10%
same,Activity,[36],91%
same,Activity,[37],25.19%
same,GI50,[38]; read-out: GI50,1.95 µM
same,CC50,[38]; [39],9.13 µM
same,TGI,[38]; read-out: TGI,4.22 µM
same,GI50,[38]; read-out: pGI50 (converted),1.95 µM
same,CC50,[38]; [40],9.12 µM
same,TGI,[38]; read-out: pTGI (converted),4.17 µM
